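Cultured in 96-well plates, cells were exposed to test compound for 48 hours across five concentrations. At the GI50, growth is halved. At the TGI there is no net growth.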
Legend:
Assay in all cases: NCI tumour cell line growth inhibition, 48 h
K-562 leukemia = tested on: K-562 leukemia
LOX IMVI melanoma = tested on: LOX IMVI melanoma
RPMI-8226 leukemia = tested on: RPMI-8226 leukemia
RXF 393 renal = tested on: RXF 393 renal
SF-295 CNS = tested on: SF-295 CNS
SF-539 CNS = tested on: SF-539 CNS
U251 CNS = tested on: U251 CNS
UACC-62 melanoma = tested on: UACC-62 melanoma
PC-3 prostate = tested on: PC-3 prostate
T-47D breast = tested on: T-47D breast

O=C1/C(=C/c2ccc(C(F)(F)F)cc2)COc2ccc(O)c(O)c21
GI50 (K-562 leukemia): 0.289 µM
TGI (K-562 leukemia): > 100 µM
GI50 (LOX IMVI melanoma): 0.377 µM
TGI (LOX IMVI melanoma): 1.48 µM
GI50 (RPMI-8226 leukemia): 0.238 µM
TGI (RPMI-8226 leukemia): 0.607 µM
GI50 (RXF 393 renal): 1.6 µM
TGI (RXF 393 renal): 3.05 µM
GI50 (SF-295 CNS): 3.15 µM
TGI (SF-295 CNS): 8.52 µM
GI50 (SF-539 CNS): 1.14 µM
TGI (SF-539 CNS): 2.46 µM
GI50 (U251 CNS): 0.703 µM
TGI (U251 CNS): 2.05 µM
GI50 (UACC-62 melanoma): 1.48 µM
TGI (UACC-62 melanoma): 2.87 µM

N#Cc1ccc(C2SCc3nc4ccccc4n32)cc1 (stereo not given)
TGI (K-562 leukemia): > 100 µM
TGI (RPMI-8226 leukemia): > 100 µM
TGI (RXF 393 renal): > 100 µM
TGI (SF-295 CNS): > 100 µM
TGI (SF-539 CNS): > 100 µM
TGI (U251 CNS): > 100 µM
TGI (UACC-62 melanoma): > 100 µM

CCN(CC)C(=S)SS(C)(=O)=O
TGI (K-562 leukemia): 47.8 µM
TGI (LOX IMVI melanoma): 26.5 µM
TGI (RXF 393 renal): 23.4 µM
TGI (SF-295 CNS): 98 µM
TGI (SF-539 CNS): 43.7 µM
TGI (U251 CNS): 31.5 µM
TGI (UACC-62 melanoma): 30 µM

Cc1[nH]c2cc([N+](=O)[O-])ccc2c1[N+](=O)[O-]
TGI (K-562 leukemia): > 100 µM
TGI (LOX IMVI melanoma): 76.2 µM
TGI (RPMI-8226 leukemia): 58.4 µM
TGI (RXF 393 renal): 54.1 µM
TGI (SF-295 CNS): 48.8 µM
TGI (SF-539 CNS): 57.1 µM
TGI (U251 CNS): 71.2 µM

Cc1ccc(-c2nc3sc(C)cn3c2/C=C2\C(=O)Nc3ccc(Cl)cc32)cc1
GI50 (K-562 leukemia): 22.8 µM
TGI (K-562 leukemia): 84.1 µM
GI50 (LOX IMVI melanoma): 13.8 µM
TGI (LOX IMVI melanoma): 26.7 µM
GI50 (PC-3 prostate): 22.3 µM
TGI (PC-3 prostate): 54.4 µM
GI50 (RPMI-8226 leukemia): 22.4 µM
TGI (RPMI-8226 leukemia): 58.6 µM
GI50 (SF-295 CNS): 8.2 µM
TGI (SF-295 CNS): 32.9 µM
GI50 (SF-539 CNS): 4.51 µM
TGI (SF-539 CNS): 17.3 µM
GI50 (T-47D breast): 42.2 µM
TGI (T-47D breast): > 100 µM
GI50 (U251 CNS): 3.92 µM
TGI (U251 CNS): 15.3 µM
GI50 (UACC-62 melanoma): 13.3 µM
TGI (UACC-62 melanoma): 27.7 µM

Cc1c(C(N)=O)sc2nc(C)n(/N=c3\scc(-c4ccccc4)n3Cc3ccccc3)c(=O)c12
GI50 (K-562 leukemia): 8.89 µM
TGI (K-562 leukemia): > 100 µM
GI50 (LOX IMVI melanoma): 3.54 µM
TGI (LOX IMVI melanoma): > 100 µM
GI50 (PC-3 prostate): 2.15 µM
TGI (PC-3 prostate): 8.31 µM
GI50 (RPMI-8226 leukemia): 13.9 µM
TGI (RPMI-8226 leukemia): > 100 µM
GI50 (SF-295 CNS): 2.93 µM
TGI (SF-295 CNS): > 100 µM
GI50 (SF-539 CNS): 4.02 µM
TGI (SF-539 CNS): > 100 µM
GI50 (T-47D breast): 3.25 µM
TGI (T-47D breast): > 100 µM
GI50 (U251 CNS): 3.32 µM
TGI (U251 CNS): > 100 µM
GI50 (UACC-62 melanoma): 4.26 µM
TGI (UACC-62 melanoma): 83.2 µM

CCOC(=O)C1C(=O)CC(=O)C2CCCCC21 (stereo not given)
TGI (K-562 leukemia): > 100 µM
TGI (LOX IMVI melanoma): > 100 µM
TGI (RPMI-8226 leukemia): > 100 µM
TGI (RXF 393 renal): > 100 µM
TGI (SF-295 CNS): > 100 µM
TGI (SF-539 CNS): > 100 µM
TGI (U251 CNS): > 100 µM
TGI (UACC-62 melanoma): > 100 µM

COC(=O)[C@@]12C3=NO[C@]1(C(=O)OC)C(O[Si](C)(C)C(C)(C)C)[C@@H](OC(C)=O)[C@@H](OC(C)=O)[C@@H]2[C@@H](OCc1ccccc1)CC3 (stereo not given in full)
TGI (K-562 leukemia): > 100 µM
TGI (LOX IMVI melanoma): > 100 µM
TGI (RPMI-8226 leukemia): > 100 µM
TGI (RXF 393 renal): 89.6 µM
TGI (SF-295 CNS): > 100 µM
TGI (SF-539 CNS): > 100 µM
TGI (U251 CNS): > 100 µM
TGI (UACC-62 melanoma): > 100 µM

COc1ccc2c(c1)[n+]([O-])c(-c1ccccc1Cl)c(N)[n+]2[O-]
TGI (K-562 leukemia): > 100 µM
TGI (RPMI-8226 leukemia): > 100 µM
TGI (SF-295 CNS): > 100 µM
TGI (SF-539 CNS): > 100 µM
TGI (U251 CNS): > 100 µM

CCc1c(C)c2cc(-n3c(-c4ccc(OC)cc4)csc3=N)c(O)c(C)c2oc1=O
GI50 (PC-3 prostate): 0.752 µM
TGI (PC-3 prostate): > 100 µM
GI50 (RXF 393 renal): 1.74 µM
TGI (RXF 393 renal): 6.7 µM
GI50 (SF-295 CNS): 1.52 µM
TGI (SF-295 CNS): 10.3 µM
GI50 (SF-539 CNS): 2.14 µM
TGI (SF-539 CNS): 7.25 µM
GI50 (T-47D breast): 0.551 µM
TGI (T-47D breast): 4.24 µM
GI50 (U251 CNS): 1.77 µM
TGI (U251 CNS): 6.09 µM
GI50 (UACC-62 melanoma): 1 µM
TGI (UACC-62 melanoma): 2.94 µM

CC(=O)Nc1ccc(/C=c2\sc3nnc(-c4cccnc4)n3c2=O)cc1
TGI (K-562 leukemia): 70.1 µM
TGI (LOX IMVI melanoma): 30.7 µM
TGI (RXF 393 renal): 37.2 µM
TGI (SF-295 CNS): > 100 µM
TGI (SF-539 CNS): 33.3 µM
TGI (U251 CNS): 33.5 µM
TGI (UACC-62 melanoma): 27.7 µM

CCOCCOCCOCCOCCOCCOCCOCCOCCOCCO (tested in a mixture with another compound)
GI50 (LOX IMVI melanoma): 0.81 µM
TGI (LOX IMVI melanoma): 2.9 µM
GI50 (PC-3 prostate): 1.01 µM
TGI (PC-3 prostate): 6.5 µM
GI50 (RXF 393 renal): 1.85 µM
TGI (RXF 393 renal): 8.88 µM
GI50 (SF-295 CNS): 0.869 µM
TGI (SF-295 CNS): 4.12 µM
GI50 (T-47D breast): 1.12 µM
TGI (T-47D breast): 7.16 µM
GI50 (U251 CNS): 0.987 µM
TGI (U251 CNS): 4.47 µM

Cc1ccc(S(=O)(=O)NNS(C)(=O)=O)cc1
TGI (K-562 leukemia): > 100 µM
TGI (LOX IMVI melanoma): > 100 µM
TGI (RPMI-8226 leukemia): > 100 µM
TGI (RXF 393 renal): > 100 µM
TGI (SF-295 CNS): > 100 µM
TGI (SF-539 CNS): > 100 µM
TGI (U251 CNS): > 100 µM
TGI (UACC-62 melanoma): > 100 µM

Cc1ccc(S(=O)(=O)C2CC2(Cl)Cl)cc1 (stereo not given)
TGI (K-562 leukemia): > 100 µM
TGI (LOX IMVI melanoma): 35.6 µM
TGI (RXF 393 renal): 29.1 µM
TGI (SF-295 CNS): > 100 µM
TGI (SF-539 CNS): > 100 µM
TGI (U251 CNS): > 100 µM
TGI (UACC-62 melanoma): 60.4 µM

O=C(CI)Nc1ccc(Br)cc1
GI50 (K-562 leukemia): 2.53 µM
TGI (K-562 leukemia): > 100 µM
GI50 (LOX IMVI melanoma): 0.326 µM
TGI (LOX IMVI melanoma): 1.46 µM
GI50 (PC-3 prostate): 2.43 µM
TGI (PC-3 prostate): 6.22 µM
GI50 (RXF 393 renal): 1.7 µM
TGI (RXF 393 renal): 3.21 µM
GI50 (SF-295 CNS): 11.2 µM
TGI (SF-295 CNS): 30.7 µM
GI50 (SF-539 CNS): 1.81 µM
TGI (SF-539 CNS): 3.67 µM
GI50 (U251 CNS): 1.83 µM
TGI (U251 CNS): 3.87 µM
GI50 (UACC-62 melanoma): 3.96 µM
TGI (UACC-62 melanoma): 14.8 µM

CCC(=O)Nc1nnc(Cc2ccc(OC)c(OC)c2)s1
GI50 (K-562 leukemia): > 100 µM
TGI (K-562 leukemia): > 100 µM
GI50 (LOX IMVI melanoma): > 100 µM
TGI (LOX IMVI melanoma): > 100 µM
GI50 (PC-3 prostate): > 100 µM
TGI (PC-3 prostate): > 100 µM
GI50 (RPMI-8226 leukemia): > 100 µM
TGI (RPMI-8226 leukemia): > 100 µM
GI50 (SF-295 CNS): > 100 µM
TGI (SF-295 CNS): > 100 µM
GI50 (SF-539 CNS): > 100 µM
TGI (SF-539 CNS): > 100 µM
GI50 (T-47D breast): > 100 µM
TGI (T-47D breast): > 100 µM
GI50 (U251 CNS): > 100 µM
TGI (U251 CNS): > 100 µM
GI50 (UACC-62 melanoma): > 100 µM
TGI (UACC-62 melanoma): > 100 µM

CCCCOC(=O)NC(=O)c1cn(CCCOC(=O)CCCCCCCCC(=O)OCCCn2cc(C(=O)NC(=O)OCCCC)c(=O)n(C)c2=O)c(=O)n(C)c1=O
TGI (K-562 leukemia): > 100 µM
TGI (RPMI-8226 leukemia): > 100 µM
TGI (RXF 393 renal): > 100 µM
TGI (SF-295 CNS): > 100 µM
TGI (SF-539 CNS): > 100 µM
TGI (U251 CNS): > 100 µM
TGI (UACC-62 melanoma): > 100 µM

CCN(CC)c1c(C)nnn1C1OC(COC(C)=O)C(OC(C)=O)C(OC(C)=O)C1OC(C)=O (stereo not given)
TGI (K-562 leukemia): > 100 µM
TGI (RPMI-8226 leukemia): 78.3 µM
TGI (SF-295 CNS): > 100 µM
TGI (SF-539 CNS): > 100 µM
TGI (U251 CNS): > 100 µM
TGI (UACC-62 melanoma): > 100 µM

O=C(Oc1c(Cl)cc(Cl)cc1Cl)c1ccccc1Nc1ccnc(C(F)(F)F)c1
GI50 (K-562 leukemia): 2.42 µM
TGI (K-562 leukemia): > 100 µM
GI50 (LOX IMVI melanoma): 1.99 µM
TGI (LOX IMVI melanoma): 5.13 µM
GI50 (PC-3 prostate): 15 µM
TGI (PC-3 prostate): > 100 µM
GI50 (RXF 393 renal): 9.47 µM
TGI (RXF 393 renal): > 100 µM
GI50 (SF-295 CNS): 4.16 µM
TGI (SF-295 CNS): > 100 µM
GI50 (T-47D breast): 8.55 µM
TGI (T-47D breast): > 100 µM
GI50 (U251 CNS): 3.04 µM
TGI (U251 CNS): 9.32 µM
GI50 (UACC-62 melanoma): 1.74 µM
TGI (UACC-62 melanoma): 6.06 µM
